Measurements published in PubChem BioAssay (NCI).
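Each compound was tested at five concentrations against cells in 96-well plates for 48 hours. TGI marks complete inhibition of growth.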

How the values were obtained:
Test in all cases: NCI anticancer screen, dose series, 48 h
786-0 renal = system: 786-0 renal
A498 renal = system: A498 renal
A549 NSCLC = system: A549 NSCLC
ACHN renal = system: ACHN renal
CAKI-1 renal = system: CAKI-1 renal
CCRF-CEM leukemia = system: CCRF-CEM leukemia
COLO 205 colon = system: COLO 205 colon
DU-145 prostate = system: DU-145 prostate
EKVX NSCLC = system: EKVX NSCLC
HCC-2998 colon = system: HCC-2998 colon
HCT-116 colon = system: HCT-116 colon
HCT-15 colon = system: HCT-15 colon
HL-60(TB) leukemia = system: HL-60(TB) leukemia
HOP-62 NSCLC = system: HOP-62 NSCLC
HOP-92 NSCLC = system: HOP-92 NSCLC
HS 578T breast = system: HS 578T breast
HT29 colon = system: HT29 colon
IGROV1 ovarian = system: IGROV1 ovarian
K-562 leukemia = system: K-562 leukemia
KM12 colon = system: KM12 colon
LOX IMVI melanoma = system: LOX IMVI melanoma
M14 melanoma = system: M14 melanoma
MALME-3M melanoma = system: MALME-3M melanoma
MCF7 breast = system: MCF7 breast
MDA-MB-231 breast = system: MDA-MB-231 breast
MDA-MB-435 = system: MDA-MB-435
MDA-N = system: MDA-N
MOLT-4 leukemia = system: MOLT-4 leukemia
NCI-H226 lung = system: NCI-H226 lung
NCI-H23 lung = system: NCI-H23 lung
NCI-H460 lung = system: NCI-H460 lung
NCI-H522 lung = system: NCI-H522 lung
NCI/ADR-RES ovarian = system: NCI/ADR-RES ovarian
OVCAR-3 ovarian = system: OVCAR-3 ovarian
OVCAR-4 ovarian = system: OVCAR-4 ovarian
OVCAR-5 ovarian = system: OVCAR-5 ovarian
OVCAR-8 ovarian = system: OVCAR-8 ovarian
PC-3 prostate = system: PC-3 prostate
RPMI-8226 leukemia = system: RPMI-8226 leukemia
RXF 393 renal = system: RXF 393 renal
SF-268 CNS = system: SF-268 CNS
SF-295 CNS = system: SF-295 CNS
SF-539 CNS = system: SF-539 CNS
SK-MEL-2 melanoma = system: SK-MEL-2 melanoma
SK-MEL-28 melanoma = system: SK-MEL-28 melanoma
SK-MEL-5 melanoma = system: SK-MEL-5 melanoma
SK-OV-3 ovarian = system: SK-OV-3 ovarian
SN12C renal = system: SN12C renal
SNB-19 CNS = system: SNB-19 CNS
SNB-75 CNS = system: SNB-75 CNS
SR leukemia = system: SR leukemia
SW-620 colon = system: SW-620 colon
T-47D breast = system: T-47D breast
TK-10 renal = system: TK-10 renal
U251 CNS = system: U251 CNS
UACC-257 melanoma = system: UACC-257 melanoma
UACC-62 melanoma = system: UACC-62 melanoma
UO-31 renal = system: UO-31 renal
BT-549 breast = system: BT-549 breast

CCn1c(O)c(C=Nc2ccccc2)s/c1=N/Nc1ncc(CC(=O)Nc2ccccc2C)s1 gave a TGI (786-0 renal) of over 100 µM, a TGI (A498 renal) of over 100 µM and a TGI (A549 NSCLC) of over 100 µM. The TGI (ACHN renal) was over 100 µM, the TGI (CAKI-1 renal) was over 100 µM and the TGI (CCRF-CEM leukemia) was over 100 µM. For the same compound, the TGI (COLO 205 colon) was over 100 µM, the TGI (DU-145 prostate) was over 100 µM and the TGI (EKVX NSCLC) was over 100 µM. For the same compound, the TGI (HCC-2998 colon) was over 100 µM, the TGI (HCT-116 colon) was over 100 µM and the TGI (HCT-15 colon) was over 100 µM. For the same compound, the TGI (HL-60(TB) leukemia) was over 100 µM, the TGI (HOP-62 NSCLC) was over 100 µM and the TGI (HOP-92 NSCLC) was over 100 µM. The TGI (HS 578T breast) was over 100 µM, the TGI (HT29 colon) was over 100 µM and the TGI (IGROV1 ovarian) was over 100 µM. The TGI (K-562 leukemia) was over 100 µM, the TGI (KM12 colon) was over 100 µM and the TGI (LOX IMVI melanoma) was over 100 µM. For the same compound, the TGI (M14 melanoma) was over 100 µM, the TGI (MALME-3M melanoma) was over 100 µM and the TGI (MCF7 breast) was over 100 µM. The TGI (MDA-MB-231 breast) was over 100 µM, the TGI (MDA-MB-435) was over 100 µM and the TGI (MDA-N) was over 100 µM. The TGI (MOLT-4 leukemia) was over 100 µM, the TGI (NCI-H226 lung) was over 100 µM and the TGI (NCI-H23 lung) was over 100 µM. For the same compound, the TGI (NCI-H460 lung) was over 100 µM, the TGI (NCI-H522 lung) was over 100 µM and the TGI (NCI/ADR-RES ovarian) was over 100 µM. For the same compound, the TGI (OVCAR-3 ovarian) was over 100 µM, the TGI (OVCAR-4 ovarian) was over 100 µM and the TGI (OVCAR-5 ovarian) was over 100 µM. It also gave a TGI (OVCAR-8 ovarian) of over 100 µM, a TGI (PC-3 prostate) of over 100 µM and a TGI (RPMI-8226 leukemia) of over 100 µM. For the same compound, the TGI (RXF 393 renal) was over 100 µM, the TGI (SF-268 CNS) was over 100 µM and the TGI (SF-295 CNS) was over 100 µM. For the same compound, the TGI (SF-539 CNS) was over 100 µM, the TGI (SK-MEL-2 melanoma) was over 100 µM and the TGI (SK-MEL-28 melanoma) was over 100 µM. For the same compound, the TGI (SK-MEL-5 melanoma) was over 100 µM, the TGI (SK-OV-3 ovarian) was over 100 µM and the TGI (SN12C renal) was over 100 µM. The TGI (SNB-19 CNS) was over 100 µM, the TGI (SNB-75 CNS) was over 100 µM and the TGI (SR leukemia) was over 100 µM. For the same compound, the TGI (SW-620 colon) was over 100 µM, the TGI (T-47D breast) was over 100 µM and the TGI (TK-10 renal) was over 100 µM. The TGI (U251 CNS) was over 100 µM, the TGI (UACC-257 melanoma) was over 100 µM and the TGI (UACC-62 melanoma) was over 100 µM. It also gave a TGI (UO-31 renal) of over 100 µM.
CC(C)(CNC(=O)/C(Cl)=C(/Cl)C(=O)O)CNC(=O)/C(Cl)=C(/Cl)C(=O)O showed a TGI (786-0 renal) of over 100 µM, a TGI (A498 renal) of over 100 µM and a TGI (A549 NSCLC) of over 100 µM. The TGI (ACHN renal) was 60.3 µM, the TGI (BT-549 breast) was over 100 µM and the TGI (CAKI-1 renal) was over 100 µM. It also gave a TGI (CCRF-CEM leukemia) of over 100 µM, a TGI (COLO 205 colon) of 35.6 µM and a TGI (DU-145 prostate) of over 100 µM. It also gave a TGI (EKVX NSCLC) of over 100 µM, a TGI (HCC-2998 colon) of over 100 µM and a TGI (HCT-116 colon) of over 100 µM. The TGI (HL-60(TB) leukemia) was over 100 µM, the TGI (HOP-62 NSCLC) was over 100 µM and the TGI (HOP-92 NSCLC) was over 100 µM. The TGI (HS 578T breast) was over 100 µM, the TGI (HT29 colon) was over 100 µM and the TGI (IGROV1 ovarian) was over 100 µM. The TGI (K-562 leukemia) was over 100 µM, the TGI (KM12 colon) was over 100 µM and the TGI (LOX IMVI melanoma) was over 100 µM. For the same compound, the TGI (MCF7 breast) was over 100 µM, the TGI (MDA-MB-435) was over 100 µM and the TGI (MDA-N) was over 100 µM. It also gave a TGI (MOLT-4 leukemia) of over 100 µM, a TGI (NCI-H226 lung) of over 100 µM and a TGI (NCI-H460 lung) of over 100 µM. For the same compound, the TGI (NCI-H522 lung) was over 100 µM, the TGI (NCI/ADR-RES ovarian) was over 100 µM and the TGI (OVCAR-3 ovarian) was over 100 µM. The TGI (OVCAR-4 ovarian) was over 100 µM, the TGI (OVCAR-5 ovarian) was over 100 µM and the TGI (OVCAR-8 ovarian) was over 100 µM. The TGI (PC-3 prostate) was over 100 µM, the TGI (RPMI-8226 leukemia) was 76.3 µM and the TGI (RXF 393 renal) was over 100 µM. For the same compound, the TGI (SF-295 CNS) was over 100 µM, the TGI (SF-539 CNS) was over 100 µM and the TGI (SK-MEL-2 melanoma) was over 100 µM. It also gave a TGI (SK-MEL-28 melanoma) of over 100 µM, a TGI (SK-MEL-5 melanoma) of over 100 µM and a TGI (SK-OV-3 ovarian) of over 100 µM. The TGI (SNB-19 CNS) was over 100 µM, the TGI (SNB-75 CNS) was over 100 µM and the TGI (SR leukemia) was over 100 µM. For the same compound, the TGI (SW-620 colon) was over 100 µM, the TGI (T-47D breast) was over 100 µM and the TGI (TK-10 renal) was over 100 µM. The TGI (U251 CNS) was over 100 µM, the TGI (UACC-257 melanoma) was over 100 µM and the TGI (UACC-62 melanoma) was over 100 µM. For the same compound, the TGI (UO-31 renal) was over 100 µM.
CCOC(=O)C(COS(C)(=O)=O)(COS(C)(=O)=O)C(=O)OCC gave a TGI (A498 renal) of over 100 µM, a TGI (A549 NSCLC) of over 100 µM and a TGI (ACHN renal) of over 100 µM. It also gave a TGI (CCRF-CEM leukemia) of over 100 µM, a TGI (COLO 205 colon) of over 100 µM and a TGI (DU-145 prostate) of over 100 µM. The TGI (HCC-2998 colon) was over 100 µM, the TGI (HCT-116 colon) was over 100 µM and the TGI (HCT-15 colon) was over 100 µM. The TGI (HOP-92 NSCLC) was over 100 µM, the TGI (HS 578T breast) was over 100 µM and the TGI (HT29 colon) was over 100 µM. The TGI (K-562 leukemia) was over 100 µM, the TGI (KM12 colon) was over 100 µM and the TGI (LOX IMVI melanoma) was over 100 µM. The TGI (M14 melanoma) was over 100 µM, the TGI (MCF7 breast) was over 100 µM and the TGI (MDA-MB-231 breast) was over 100 µM. For the same compound, the TGI (MDA-MB-435) was over 100 µM, the TGI (MDA-N) was over 100 µM and the TGI (MOLT-4 leukemia) was over 100 µM. The TGI (NCI-H226 lung) was over 100 µM, the TGI (NCI-H23 lung) was over 100 µM and the TGI (NCI-H460 lung) was over 100 µM. The TGI (NCI-H522 lung) was over 100 µM, the TGI (NCI/ADR-RES ovarian) was over 100 µM and the TGI (OVCAR-3 ovarian) was over 100 µM. For the same compound, the TGI (OVCAR-4 ovarian) was over 100 µM, the TGI (OVCAR-8 ovarian) was over 100 µM and the TGI (PC-3 prostate) was over 100 µM. It also gave a TGI (RXF 393 renal) of over 100 µM, a TGI (SF-268 CNS) of over 100 µM and a TGI (SF-295 CNS) of over 100 µM. The TGI (SK-MEL-28 melanoma) was over 100 µM, the TGI (SK-MEL-5 melanoma) was over 100 µM and the TGI (SK-OV-3 ovarian) was over 100 µM. For the same compound, the TGI (SN12C renal) was over 100 µM, the TGI (SNB-19 CNS) was over 100 µM and the TGI (SNB-75 CNS) was over 100 µM. For the same compound, the TGI (SR leukemia) was over 100 µM, the TGI (SW-620 colon) was over 100 µM and the TGI (T-47D breast) was over 100 µM. The TGI (TK-10 renal) was over 100 µM, the TGI (U251 CNS) was over 100 µM and the TGI (UACC-257 melanoma) was over 100 µM. It also gave a TGI (UO-31 renal) of over 100 µM.
